Data taken from patent publication US20060292186A1, “Self-nanoemulsifying oily formulation for the administration of poorly water-soluble drugs” (Novagali Pharma SA, priority 2003, published 2006).

How the values were obtained:
[1] = humans, without enhancer; cited from earlier work
[2] = Dose versus plasma AUC pharmacokinetic study of paclitaxel SNEOF after cyclosporin A oral pre-treatment in wild type mice; type: in vivo, FVB Wild type Mice; conditions: 10-60 mg/kg p.o., CsA constant at 10 mg/kg
Method: Each cohort consisted of 20 mice. At the specified times, animals were anaesthetized using metofane. After fixation on their back, with their chest in an upright position blood was collected by cardiac puncture using a 1 mL polypropylene syringe fitted with 25 g needle. Blood was transferred immediately into tubes containing potassium EDTA as anticoagulant and mixed by inversion. Blood samples were centrifuged vial for 5 min at 4000 g. The supernatant plasma fraction was transferred to a clean tube with appropriate label and stored at -20° C. until analyses. […] Plasma samples for subsequent analysis were obtained from all animals. […] Plasma concentration data were reported. Plasma concentrations versus time curves were fitted using the […] software package (version 3.0) and pharmacokinetic parameters: […]

SMILES: CC(=O)O[C@H]1C(=O)[C@@]2(C)[C@H]([C@H](OC(=O)c3ccccc3)[C@]3(O)C[C@H](OC(=O)[C@H](O)[C@@H](NC(=O)c4ccccc4)c4ccccc4)C(C)=C1C3(C)C)[C@]1(OC(C)=O)CO[C@@H]1C[C@@H]2O [paclitaxel, Paclitaxel]
- systemic bioavailability after oral paclitaxel administration [1]: less than 6%
- linearity of oral bioavailability with dose [2]: not linear but decreased significantly with dose
